Experimental data reported in ChEMBL document CHEMBL6115030, “Systematic All-Hydrocarbon Stapling Analysis for Cecropin A Generates a Potent and Stable Antimicrobial Peptide” (J Med Chem, 2025).
Converted amounts (≈) assume the structure as drawn. Numbered stars: 1 amine (or outer) side, 2 acyl side, 3 side chain; on linkers, the order of the positions; unused ones are H or OH. Bridge positions count the residues as written; N and C are the ends. Square brackets hold non-standard residues; d marks the D form. Peptide text beside a SMILES is read from it. ξ: configuration not given here. ξαMeNle(6-ylidene) = CC(CCCC=[*:3])(N[*:1])C(=O)[*:2]; S5 = C=CCCC[C@](C)(N)C(=O)O

What was measured:
Klebsiella pneumoniae = assay: Antibacterial activity against Klebsiella pneumoniae ATCC 13883 assessed as inhibition of bacterial growth measured after 24 hrs by broth microdilution method; type: functional
Pseudomonas aeruginosa = assay: Antibacterial activity against Pseudomonas aeruginosa PAO1 assessed as inhibition of bacterial growth measured after 24 hrs by broth microdilution method; type: functional
[1] = Hemolytic activity in human RBC assessed as hemolysis incubated for 1 hr by microplate reader; type: toxicity, cell-based, Erythrocyte; conditions: erythrocyte, 1 h
Staphylococcus aureus = assay: Antibacterial activity against Staphylococcus aureus ATCC 25923 assessed as inhibition of bacterial growth measured after 24 hrs by broth microdilution method; type: functional

SMILES	MIC (Klebsiella pneumoniae) [µM]	MIC (Pseudomonas aeruginosa) [µM]	MIC (Staphylococcus aureus) [µM]	Activity [1]
CC[C@H](C)[C@H](NC(=O)[C@H](CCC(N)=O)NC(=O)[C@@H](NC(=O)[C@H](C)NC(=O)[C@H](CCC(N)=O)NC(=O)CNC(=O)[C@@H](NC(=O)[C@@H](NC(=O)[C@H](C)NC(=O)[C@@H](NC(=O)[C@H](C)NC(=O)[C@@H]1CCCN1C(=O)CNC(=O)[C@]1(C)CCC/C=C\CCC[C@](C)(NC(=O)[C@H](CC(=O)O)NC(=O)[C@H](CCCNC(=N)N)NC(=O)[C@@H](NC(=O)[C@H](CC(N)=O)NC(=O)[C@H](CCC(N)=O)NC(=O)CNC(=O)[C@@H](NC(=O)[C@H](CCCCN)NC(=O)[C@H](CCC(=O)O)NC(=O)[C@@H](NC(=O)[C@H](CCCCN)NC(=O)[C@H](CCCCN)NC(=O)[C@H](Cc2ccccc2)NC(=O)[C@H](CC(C)C)NC(=O)[C@H](CCCCN)NC(=O)[C@H](Cc2c[nH]c3ccccc23)NC(=O)[C@H](CCCCN)NC(C)=O)[C@@H](C)CC)C(C)C)[C@@H](C)CC)C(=O)N[C@@H]([C@@H](C)CC)C(=O)N[C@@H]([C@@H](C)CC)C(=O)N[C@@H](CCCCN)C(=O)N1)C(C)C)C(C)C)C(C)C)[C@@H](C)O)C(=O)N[C@@H](C)C(=O)N[C@@H](CCCCN)C(N)=O (Ac-KWKLFKKIEKVGQNIRD[S5]IIK[S5]GPAVAVVGQATQIAK-NH2; staple (Z) 18-22)	3.13 (≈ 13 µg/mL)	3.13 (≈ 13 µg/mL)	3.13 (≈ 13 µg/mL)	
CC[C@H](C)[C@H](NC(=O)CNC(=O)[C@H](CC(=O)O)NC(=O)[C@H](CCCNC(=N)N)NC(=O)[C@@H](NC(=O)[C@H](CC(N)=O)NC(=O)[C@H](CCC(N)=O)NC(=O)CNC(=O)[C@@H](NC(=O)[C@H](CCCCN)NC(=O)[C@]1(C)CCC/C=C\CCC[C@](C)(NC(=O)[C@H](CC(C)C)NC(=O)[C@H](CCCCN)NC(=O)[C@H](Cc2c[nH]c3ccccc23)NC(=O)[C@H](CCCCN)NC(C)=O)C(=O)N[C@@H](CCCCN)C(=O)N[C@@H](CCCCN)C(=O)N[C@@H]([C@@H](C)CC)C(=O)N1)C(C)C)[C@@H](C)CC)C(=O)N[C@H](C(=O)N[C@@H](CCCCN)C(=O)N[C@@H](C)C(=O)NCC(=O)N1CCC[C@H]1C(=O)N[C@@H](C)C(=O)N[C@H](C(=O)N[C@@H](C)C(=O)N[C@H](C(=O)N[C@H](C(=O)NCC(=O)N[C@@H](CCC(N)=O)C(=O)N[C@@H](C)C(=O)N[C@H](C(=O)N[C@@H](CCC(N)=O)C(=O)N[C@H](C(=O)N[C@@H](C)C(=O)N[C@@H](CCCCN)C(N)=O)[C@@H](C)CC)[C@@H](C)O)C(C)C)C(C)C)C(C)C)[C@@H](C)CC (Ac-KWKL[S5]KKI[S5]KVGQNIRDGIIKAGPAVAVVGQATQIAK-NH2; staple (Z) 5-9)	6.25 (≈ 25.1 µg/mL)	> 100	1.56 (≈ 6.27 µg/mL)	
CC[C@H](C)[C@H](NC(=O)CNC(=O)[C@H](CC(=O)O)NC(=O)[C@H](CCCNC(=N)N)NC(=O)[C@@H](NC(=O)[C@H](CC(N)=O)NC(=O)[C@H](CCC(N)=O)NC(=O)CNC(=O)[C@@H](NC(=O)[C@H](CCCCN)NC(=O)[C@H](CCC(=O)O)NC(=O)[C@@H](NC(=O)[C@H](CCCCN)NC(=O)[C@H](CCCCN)NC(=O)[C@H](Cc1ccccc1)NC(=O)[C@H](CC(C)C)NC(=O)[C@H](CCCCN)NC(=O)[C@H](Cc1c[nH]c2ccccc12)NC(=O)[C@H](CCCCN)NC(C)=O)[C@@H](C)CC)C(C)C)[C@@H](C)CC)C(=O)N[C@H](C(=O)N[C@@H](CCCCN)C(=O)N[C@@H](C)C(=O)NCC(=O)N1CCC[C@H]1C(=O)N[C@@H](C)C(=O)N[C@H](C(=O)N[C@@H](C)C(=O)N[C@H](C(=O)N[C@H](C(=O)NCC(=O)N[C@@]1(C)CCC/C=C\CCC[C@@](C)(C(=O)N[C@@H](C)C(=O)N[C@@H](CCCCN)C(N)=O)NC(=O)[C@H](CCC(N)=O)NC(=O)[C@H]([C@@H](C)O)NC(=O)[C@H](C)NC1=O)C(C)C)C(C)C)C(C)C)[C@@H](C)CC (Ac-KWKLFKKIEKVGQNIRDGIIKAGPAVAVVG[S5]ATQ[S5]AK-NH2; staple (Z) 31-35)	12.5 (≈ 50.7 µg/mL)	12.5 (≈ 50.7 µg/mL)	3.13 (≈ 12.7 µg/mL)	Non-toxic
CC[C@H](C)[C@H](NC(=O)CNC(=O)[C@H](CC(=O)O)NC(=O)[C@H](CCCNC(=N)N)NC(=O)[C@]1(C)CCC/C=C\CCC[C@](C)(NC(=O)[C@H](CCCCN)NC(=O)[C@H](CCC(=O)O)NC(=O)[C@@H](NC(=O)[C@H](CCCCN)NC(=O)[C@H](CCCCN)NC(=O)[C@H](Cc2ccccc2)NC(=O)[C@H](CC(C)C)NC(=O)[C@H](CCCCN)NC(=O)[C@H](Cc2c[nH]c3ccccc23)NC(=O)[C@H](CCCCN)NC(C)=O)[C@@H](C)CC)C(=O)NCC(=O)N[C@@H](CCC(N)=O)C(=O)N[C@@H](CC(N)=O)C(=O)N1)C(=O)N[C@H](C(=O)N[C@@H](CCCCN)C(=O)N[C@@H](C)C(=O)NCC(=O)N1CCC[C@H]1C(=O)N[C@@H](C)C(=O)N[C@H](C(=O)N[C@@H](C)C(=O)N[C@H](C(=O)N[C@H](C(=O)NCC(=O)N[C@@H](CCC(N)=O)C(=O)N[C@@H](C)C(=O)N[C@H](C(=O)N[C@@H](CCC(N)=O)C(=O)N[C@H](C(=O)N[C@@H](C)C(=O)N[C@@H](CCCCN)C(N)=O)[C@@H](C)CC)[C@@H](C)O)C(C)C)C(C)C)C(C)C)[C@@H](C)CC (Ac-KWKLFKKIEK[S5]GQN[S5]RDGIIKAGPAVAVVGQATQIAK-NH2; staple (Z) 11-15)	6.25 (≈ 25.5 µg/mL)	80 (≈ 327 µg/mL)	25 (≈ 102 µg/mL)	

Further compounds by falling MIC (Klebsiella pneumoniae), results first:

MIC (Klebsiella pneumoniae) [µM]	MIC (Pseudomonas aeruginosa) [µM]	MIC (Staphylococcus aureus) [µM]	SMILES	Activity [1]
12.5 (≈ 50.3 µg/mL)	> 100	> 100	CC[C@H](C)[C@H](NC(=O)CNC(=O)[C@H](CC(=O)O)NC(=O)[C@H](CCCNC(=N)N)NC(=O)[C@@H](NC(=O)[C@H](CC(N)=O)NC(=O)[C@H](CCC(N)=O)NC(=O)CNC(=O)[C@@H](NC(=O)[C@H](CCCCN)NC(=O)[C@H](CCC(=O)O)NC(=O)[C@@H](NC(=O)[C@H](CCCCN)NC(=O)[C@H](CCCCN)NC(=O)[C@]1(C)CCC/C=C\CCC[C@](C)(NC(C)=O)C(=O)N[C@@H](Cc2c[nH]c3ccccc23)C(=O)N[C@@H](CCCCN)C(=O)N[C@@H](CC(C)C)C(=O)N1)[C@@H](C)CC)C(C)C)[C@@H](C)CC)C(=O)N[C@H](C(=O)N[C@@H](CCCCN)C(=O)N[C@@H](C)C(=O)NCC(=O)N1CCC[C@H]1C(=O)N[C@@H](C)C(=O)N[C@H](C(=O)N[C@@H](C)C(=O)N[C@H](C(=O)N[C@H](C(=O)NCC(=O)N[C@@H](CCC(N)=O)C(=O)N[C@@H](C)C(=O)N[C@H](C(=O)N[C@@H](CCC(N)=O)C(=O)N[C@H](C(=O)N[C@@H](C)C(=O)N[C@@H](CCCCN)C(N)=O)[C@@H](C)CC)[C@@H](C)O)C(C)C)C(C)C)C(C)C)[C@@H](C)CC (Ac-[S5]WKL[S5]KKIEKVGQNIRDGIIKAGPAVAVVGQATQIAK-NH2; staple (Z) 1-5)	
6.25 (≈ 25.7 µg/mL)	6.25 (≈ 25.7 µg/mL)	3.13 (≈ 12.9 µg/mL)	CC[C@H](C)[C@H](NC(=O)CNC(=O)[C@H](CC(=O)O)NC(=O)[C@H](CCCNC(=N)N)NC(=O)[C@@H](NC(=O)[C@H](CC(N)=O)NC(=O)[C@H](CCC(N)=O)NC(=O)CNC(=O)[C@@H](NC(=O)[C@H](CCCCN)NC(=O)[C@H](CCC(=O)O)NC(=O)[C@@H](NC(=O)[C@H](CCCCN)NC(=O)[C@H](CCCCN)NC(=O)[C@H](Cc1ccccc1)NC(=O)[C@H](CC(C)C)NC(=O)[C@H](CCCCN)NC(=O)[C@H](Cc1c[nH]c2ccccc12)NC(=O)[C@H](CCCCN)NC(C)=O)[C@@H](C)CC)C(C)C)[C@@H](C)CC)C(=O)N[C@H](C(=O)N[C@@H](CCCCN)C(=O)N[C@@H](C)C(=O)NCC(=O)N1CCC[C@H]1C(=O)N[C@@H](C)C(=O)N[C@H](C(=O)N[C@@H](C)C(=O)N[C@H](C(=O)N[C@H](C(=O)NC1(C)CCC/C=C\CCC[C@@](C)(C(=O)N[C@H](C(=O)N[C@@H](C)C(=O)N[C@@H](CCCCN)C(N)=O)[C@@H](C)CC)NC(=O)[C@H]([C@@H](C)O)NC(=O)[C@H](C)NC(=O)[C@H](CCC(N)=O)NC1=O)C(C)C)C(C)C)C(C)C)[C@@H](C)CC (stereo partly drawn) (Ac-KWKLFKKIEKVGQNIRDGIIKAGPAVAVV[ξαMeNle(6-ylidene)]QAT[S5]IAK-NH2; staple (Z) 30-34)	Non-toxic
6.25 (≈ 25.8 µg/mL)	> 100	6.25 (≈ 25.8 µg/mL)	CC[C@H](C)[C@H](NC(=O)CNC(=O)[C@H](CC(=O)O)NC(=O)[C@H](CCCNC(=N)N)NC(=O)[C@@H](NC(=O)[C@H](CC(N)=O)NC(=O)[C@H](CCC(N)=O)NC(=O)[C@]1(C)CCC/C=C\CCC[C@](C)(NC(=O)[C@H](CCCCN)NC(=O)[C@H](CCCCN)NC(=O)[C@H](Cc2ccccc2)NC(=O)[C@H](CC(C)C)NC(=O)[C@H](CCCCN)NC(=O)[C@H](Cc2c[nH]c3ccccc23)NC(=O)[C@H](CCCCN)NC(C)=O)C(=O)N[C@@H](CCC(=O)O)C(=O)N[C@@H](CCCCN)C(=O)N[C@@H](C(C)C)C(=O)N1)[C@@H](C)CC)C(=O)N[C@H](C(=O)N[C@@H](CCCCN)C(=O)N[C@@H](C)C(=O)NCC(=O)N1CCC[C@H]1C(=O)N[C@@H](C)C(=O)N[C@H](C(=O)N[C@@H](C)C(=O)N[C@H](C(=O)N[C@H](C(=O)NCC(=O)N[C@@H](CCC(N)=O)C(=O)N[C@@H](C)C(=O)N[C@H](C(=O)N[C@@H](CCC(N)=O)C(=O)N[C@H](C(=O)N[C@@H](C)C(=O)N[C@@H](CCCCN)C(N)=O)[C@@H](C)CC)[C@@H](C)O)C(C)C)C(C)C)C(C)C)[C@@H](C)CC (Ac-KWKLFKK[S5]EKV[S5]QNIRDGIIKAGPAVAVVGQATQIAK-NH2; staple (Z) 8-12)	
